Measured values: patent US20070117743A1, “New antitumoral compounds” (priority 2003, published 2007)
Like-named read-outs stand apart in the source and are kept apart here. Where a SMILES comes first, the peptide text is derived from it. Bridges are numbered along the chain shown (N, C = ends). [ ]: non-standard residue; d: D form. The star is where a group is joined. d(aIle) = CC[C@H](C)[C@@H](N)C(=O)O; d(aThr) = C[C@@H](O)[C@@H](N)C(=O)O; hCha = N[C@@H](CCC1CCCCC1)C(=O)O; Hexanoyl(5-Me) = CC(C)CCCC(=O)*; Orn = NCCC[C@H](N)C(=O)O; Dhb = C/C=C(\N)C(=O)O

What was measured:
Type in all cases: cell-based, human
A-549 = test: SRB colorimetric assay of cell growth and viability, A-549; settings: 48 hours exposure; for GI50: read-out: GI50 A-549; for CC50: read-out: LC50 A-549
SK-MEL-28 = test: SRB colorimetric assay of cell growth and viability, SK-MEL-28; settings: 48 hours exposure; for CC50: read-out: LC50 MEL-28
HT-29 = test: SRB colorimetric assay of cell growth and viability, HT-29; settings: 48 hours exposure; for GI50: read-out: GI50 HT-29; for CC50: read-out: LC50 HT-29
LoVo = test: SRB colorimetric assay of cell growth and viability, LoVo; settings: 48 hours exposure; for CC50: read-out: LC50 LOVO
LoVo-Dox = test: SRB colorimetric assay of cell growth and viability, LoVo-Dox; settings: 48 hours exposure; for CC50: read-out: LC50 LOVO-DOX
How it was run: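 Cells in RPMI 1640 with 10% FBS were seeded at 5×10^3 per well and left 18 hours drug-free before compounds (10 to 10^−8 μg/mL in DMSO:EtOH:PBS 0.5:0.5:99) were added for 48 hours. TCA-fixed cells were stained with SRB and read at 490 nm; triplicate wells gave GI, TGI and LC.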

DU-145 = test: SRB colorimetric assay of cell growth and viability, DU-145; settings: 48 hours exposure
LNCaP = test: SRB colorimetric assay of cell growth and viability, LNCaP; settings: 48 hours exposure; for GI50: read-out: GI50 LN-caP; for CC50: read-out: LC50 LN-caP
SK-BR-3 = test: SRB colorimetric assay of cell growth and viability, SK-BR-3; settings: 48 hours exposure
IGROV-1 = test: SRB colorimetric assay of cell growth and viability, IGROV-1; settings: 48 hours exposure
IGROV-ET = test: SRB colorimetric assay of cell growth and viability, IGROV-ET; settings: 48 hours exposure; for CC50: read-out: LC50 IGROV-ET
HeLa = test: SRB colorimetric assay of cell growth and viability, HeLa; settings: 48 hours exposure; for CC50: read-out: LC50 HELA
HeLa-APL = test: SRB colorimetric assay of cell growth and viability, HeLa-APL; settings: 48 hours exposure; for CC50: read-out: LC50 HELA-APL
K-562 = test: SRB colorimetric assay of cell growth and viability, K-562; settings: 48 hours exposure; for CC50: read-out: LC50 K-562
PANC-1 = test: SRB colorimetric assay of cell growth and viability, PANC-1; settings: 48 hours exposure; for CC50: read-out: LC50 PANC-1

C/C=C1\NC(=O)[C@H](Cc2ccccc2)NC(=O)[C@@H](C(C)C)NC(=O)[C@@H]([C@@H](C)CC)NC(=O)[C@H](NC(=O)[C@H](NC(=O)[C@H](CCCN)NC(=O)[C@H]2CCCN2C(=O)[C@H](NC(=O)[C@@H](NC(=O)[C@H](CCC(N)=O)NC(=O)CCCC(C)C)C(C)C)C(C)C)[C@@H](C)CC)[C@@H](C)OC(=O)[C@H](C(C)C)NC1=O [Compound 58, [Gln^12, noD-Val^13]-KF] ({Hexanoyl(5-Me)}-QV[dV][dP][Orn][d(aIle)][d(aThr)][d(aIle)][dV]F[Dhb]V; ester 7-C)
TGI A-549 (A-549; SRB): 7.11E−06 Molar | GI50 (A-549; SRB): ≥ 7110 nM | CC50 (A-549; SRB): ≥ 7.11 µM | GI50 (SK-MEL-28): ≥ 7110 nM | TGI MEL-28 (SK-MEL-28): 7.11E−06 Molar | CC50 (SK-MEL-28): ≥ 7.11 µM | TGI HT-29 (HT-29; SRB): 7.11E−06 Molar | GI50 (HT-29; SRB): ≥ 7110 nM | CC50 (HT-29; SRB): ≥ 7.11 µM | GI50 (LoVo; SRB): ≥ 7110 nM | TGI LOVO (LoVo; SRB): 7.11E−06 Molar | CC50 (LoVo; SRB): ≥ 7.11 µM | GI50 (LoVo-Dox; SRB): ≥ 7110 nM | TGI LOVO-DOX (LoVo-Dox; SRB): 7.11E−06 Molar | CC50 (LoVo-Dox; SRB): ≥ 7.11 µM | GI50 (DU-145): ≥ 7110 nM | LC50 (concentration causing 50% net cell kill) (DU-145): ≥ 7.11 µM | TGI DU-145 (DU-145): 7.11E−06 Molar | TGI LN-caP (LNCaP): 7.11E−06 Molar | GI50 (LNCaP): ≥ 7.11 µM | CC50 (LNCaP): ≥ 7.11 µM | GI50 (SK-BR-3): ≥ 7110 nM | LC50 (SK-BR-3): ≥ 7.11 µM | TGI SK-BR-3 (SK-BR-3): 7.11E−06 Molar | GI50 (IGROV-1): ≥ 7110 nM | LC50 (concentration causing 50% net cell killing) (IGROV-1): ≥ 7.11 µM | TGI IGROV (IGROV-1): 7.11E−06 Molar | GI50 (IGROV-ET): ≥ 7110 nM | TGI IGROV-ET (IGROV-ET): 7.11E−06 Molar | CC50 (IGROV-ET): ≥ 7.11 µM | GI50 (HeLa; SRB): ≥ 7110 nM | TGI HELA (HeLa; SRB): 7.11E−06 Molar | CC50 (HeLa; SRB): ≥ 7.11 µM | GI50 (HeLa-APL; SRB): ≥ 7110 nM | TGI HELA-APL (HeLa-APL; SRB): 7.11E−06 Molar | CC50 (HeLa-APL; SRB): ≥ 7.11 µM | GI50 (K-562; SRB): ≥ 7110 nM | TGI K-562 (K-562; SRB): 7.11E−06 Molar | CC50 (K-562; SRB): ≥ 7.11 µM | GI50 (PANC-1; SRB): ≥ 7.11 µM | TGI PANC-1 (PANC-1; SRB): 7.11E−06 Molar | CC50 (PANC-1; SRB): ≥ 7.11 µM

C/C=C1\NC(=O)[C@H](CCC2CCCCC2)NC(=O)[C@@H](C(C)C)NC(=O)[C@@H]([C@@H](C)CC)NC(=O)[C@H](NC(=O)[C@H](NC(=O)[C@H](CCCN)NC(=O)[C@H]2CCCN2C(=O)[C@H](NC(=O)[C@@H](NC(=O)[C@@H](NC(=O)[C@H](NC(=O)CCCC(C)C)C(C)C)[C@@H](C)O)C(C)C)C(C)C)[C@@H](C)CC)[C@@H](C)OC(=O)[C@H](C(C)C)NC1=O [Compound 63, 5-MeHex-D-Val-Thr-Val-D-Val-D-Pro-Orn-D-allo-Ile-cyclo[D-allo-Thr-D-alo-Ile-D-Val-hCh-(Z)-Dhb-Val]] ({Hexanoyl(5-Me)}-[dV]TV[dV][dP][Orn][d(aIle)][d(aThr)][d(aIle)][dV][hCha][Dhb]V; ester 8-C)
TGI A-549 (A-549; A-549): 1.60E−06 Molar | GI50 (A-549; A-549): 728 nM | CC50 (A-549; A-549): 3.48 µM | GI50 (SK-MEL-28; SRB): 828 nM | TGI MEL-28 (SK-MEL-28; SRB): 1.77E−06 Molar | CC50 (SK-MEL-28; SRB): 3.79 µM | TGI HT-29 (HT-29; HT-29): 3.22E−07 Molar | GI50 (HT-29; HT-29): 132 nM | CC50 (HT-29; HT-29): 1.13 µM | GI50 (LoVo; LOVO): 122 nM | TGI LOVO (LoVo; LOVO): 2.40E−07 Molar | CC50 (LoVo; LOVO): 0.469 µM | GI50 (LoVo-Dox; LOVO-DOX): 130 nM | TGI LOVO-DOX (LoVo-Dox; LOVO-DOX): 2.56E−07 Molar | CC50 (LoVo-Dox; LOVO-DOX): 0.502 µM | GI50 (DU-145; SRB): 119 nM | LC50 (concentration causing 50% net cell kill) (DU-145; SRB): 1.55 µM | TGI DU-145 (DU-145; SRB): 4.25E−07 Molar | TGI LN-caP (LNCaP; SRB): 1.21E−06 Molar | GI50 (LNCaP; SRB): 0.336 µM | CC50 (LNCaP; SRB): 2.85 µM | GI50 (SK-BR-3; SRB): 74.8 nM | LC50 (SK-BR-3; SRB): 0.465 µM | TGI SK-BR-3 (SK-BR-3; SRB): 1.86E−07 Molar | GI50 (IGROV-1; SRB): 128 nM | LC50 (concentration causing 50% net cell killing) (IGROV-1; SRB): 2 µM | TGI IGROV (IGROV-1; SRB): 4.29E−07 Molar | GI50 (IGROV-ET; SRB): 76.1 nM | TGI IGROV-ET (IGROV-ET; SRB): 2.01E−07 Molar | CC50 (IGROV-ET; SRB): 0.529 µM | GI50 (HeLa; HELA): 175 nM | TGI HELA (HeLa; HELA): 4.99E−07 Molar | CC50 (HeLa; HELA): 2.06 µM | GI50 (HeLa-APL; HELA-APL): 292 nM | TGI HELA-APL (HeLa-APL; HELA-APL): 1.09E−06 Molar | CC50 (HeLa-APL; HELA-APL): 3.23 µM | GI50 (K-562; K-562): 1480 nM | TGI K-562 (K-562; K-562): 2.63E−06 Molar | CC50 (K-562; K-562): 4.69 µM | GI50 (PANC-1; PANC-1): 1.05 µM | TGI PANC-1 (PANC-1; PANC-1): 2.10E−06 Molar | CC50 (PANC-1; PANC-1): 4.21 µM

CC[C@H](C)[C@@H](NC(=O)[C@H](CCCN)NC(=O)[C@H]1CCCN1C(=O)[C@H](NC(=O)[C@@H](NC(=O)[C@@H](NC(=O)[C@H](NC(=O)CCCC(C)C)C(C)C)[C@@H](C)O)C(C)C)C(C)C)C(=O)N[C@H]1C(=O)N[C@H]([C@@H](C)CC)C(=O)N[C@H](C(C)C)C(=O)N[C@@H](Cc2ccccc2)C(=O)NCC(=O)N[C@@H](C(C)C)C(=O)O[C@@H]1C [Compound 65, [Gly^2]-KF] ({Hexanoyl(5-Me)}-[dV]TV[dV][dP][Orn][d(aIle)][d(aThr)][d(aIle)][dV]FGV; ester 8-C)
TGI A-549 (A-549; SRB): 4.99E−06 Molar | GI50 (A-549; SRB): 1950 nM | CC50 (A-549; SRB): ≥ 6.89 µM | GI50 (SK-MEL-28): 1430 nM | TGI MEL-28 (SK-MEL-28): 3.39E−06 Molar | CC50 (SK-MEL-28): ≥ 6.89 µM | TGI HT-29 (HT-29; SRB): 2.54E−06 Molar | GI50 (HT-29; SRB): 1230 nM | CC50 (HT-29; SRB): 5.28 µM | GI50 (LoVo; SRB): 1030 nM | TGI LOVO (LoVo; SRB): 1.98E−06 Molar | CC50 (LoVo; SRB): 3.81 µM | GI50 (LoVo-Dox; SRB): 557 nM | TGI LOVO-DOX (LoVo-Dox; SRB): 1.53E−06 Molar | CC50 (LoVo-Dox; SRB): 3.81 µM | GI50 (DU-145): 1170 nM | LC50 (concentration causing 50% net cell kill) (DU-145): 4.44 µM | TGI DU-145 (DU-145): 2.28E−06 Molar | TGI LN-caP (LNCaP): 6.89E−06 Molar | GI50 (LNCaP): 3.48 µM | CC50 (LNCaP): ≥ 6.89 µM | GI50 (SK-BR-3): 1160 nM | LC50 (SK-BR-3): 4.19 µM | TGI SK-BR-3 (SK-BR-3): 2.21E−06 Molar | GI50 (IGROV-1): 1440 nM | LC50 (concentration causing 50% net cell killing) (IGROV-1): 4.96 µM | TGI IGROV (IGROV-1): 2.67E−06 Molar | GI50 (IGROV-ET): 806 nM | TGI IGROV-ET (IGROV-ET): 1.69E−06 Molar | CC50 (IGROV-ET): 3.56 µM | GI50 (HeLa; SRB): 1210 nM | TGI HELA (HeLa; SRB): 1.99E−06 Molar | CC50 (HeLa; SRB): 3.26 µM | GI50 (HeLa-APL; SRB): 2230 nM | TGI HELA-APL (HeLa-APL; SRB): 6.89E−06 Molar | CC50 (HeLa-APL; SRB): ≥ 6.89 µM | GI50 (K-562; SRB): 3000 nM | TGI K-562 (K-562; SRB): 6.89E−06 Molar | CC50 (K-562; SRB): ≥ 6.89 µM | GI50 (PANC-1; SRB): ≥ 6.89 µM | TGI PANC-1 (PANC-1; SRB): 6.89E−06 Molar | CC50 (PANC-1; SRB): ≥ 6.89 µM
